The results in this text go back to paper PMC2766921 (Biochemistry, 2009).

For experiment [1], the system named is purified bacterial succinyl-CoA synthetase (BSCS). The experiment can be described thus: in-gel BN-PAGE GTP hydrolysis assay. The experiment is classed as biochemical, Escherichia coli. As to conditions: 8 mM GTP, 20 mM succinate, 0.5 mM CoA, 14 mM MgSO4, pH 7.8, room temperature.
Experiment [2] has the same test system. The experiment can be described thus: in-gel BN-PAGE ATP hydrolysis assay. The experiment is classed as biochemical, Escherichia coli. Particulars: 8 mM ATP, 20 mM succinate, 0.5 mM CoA, 14 mM MgSO4, pH 7.8, room temperature.

Chain of purified bacterial succinyl-CoA synthetase (BSCS) (P0AGE9 2-289): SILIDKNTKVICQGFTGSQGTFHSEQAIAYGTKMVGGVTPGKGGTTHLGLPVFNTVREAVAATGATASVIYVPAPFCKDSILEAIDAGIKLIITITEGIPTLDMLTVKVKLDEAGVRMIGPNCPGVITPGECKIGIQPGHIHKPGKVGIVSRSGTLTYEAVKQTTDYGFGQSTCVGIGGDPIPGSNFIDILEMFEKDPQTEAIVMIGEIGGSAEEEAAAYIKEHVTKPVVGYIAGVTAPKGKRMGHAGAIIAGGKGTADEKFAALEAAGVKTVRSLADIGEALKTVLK
Chain of purified bacterial succinyl-CoA synthetase (BSCS) (P0A836 whole entry, further chain): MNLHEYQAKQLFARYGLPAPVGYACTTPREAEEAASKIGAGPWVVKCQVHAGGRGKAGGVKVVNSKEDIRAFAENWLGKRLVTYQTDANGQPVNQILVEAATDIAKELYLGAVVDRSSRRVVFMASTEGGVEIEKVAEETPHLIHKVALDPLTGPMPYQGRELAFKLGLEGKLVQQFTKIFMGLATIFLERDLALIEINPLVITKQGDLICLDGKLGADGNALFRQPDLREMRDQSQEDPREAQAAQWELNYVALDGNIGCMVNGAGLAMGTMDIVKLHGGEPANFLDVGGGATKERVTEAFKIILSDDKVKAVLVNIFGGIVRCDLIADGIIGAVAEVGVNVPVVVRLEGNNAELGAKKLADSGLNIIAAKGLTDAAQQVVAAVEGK

`Nc1nc2c(ncn2[C@@H]2O[C@H](COP(=O)(O)OP(=O)(O)OP(=O)(O)O)[C@@H](O)[C@H]2O)c(=O)[nH]1` [GTP]: in experiment [1], the “in-gel BN-PAGE GTP hydrolysis assay (lead phosphate)” value is “ATP-dependent activity of BSCS was higher than the GTP-dependent activity”. In the case of `Nc1ncnc2c1ncn2[C@@H]1O[C@H](COP(=O)(O)OP(=O)(O)OP(=O)(O)O)[C@@H](O)[C@H]1O` [ATP], in experiment [2], the “in-gel BN-PAGE ATP hydrolysis assay (lead phosphate)” value is reported as “ATP-dependent activity of BSCS was higher than the GTP-dependent activity”.
